# “Also recorded” adds a separate entry of the source.
# Tests used:
# p38 [1] = test: Western blot for p38 in RPTE cells after cryopreservation injury; type: cell-based, human; conditions: 100 and 150 μM
# Procedure: (§1) Cell culture: RPTE cells were grown in Renal Epithelial Cell Basal Medium (REBM) with full supplements at 37° C. in 5% CO2 incubator as per supplier's instructions. RPTE cells were able to proliferate for 6-8 passages under the culture conditions.
# (§2) Cryopreservation injury: We have utilized a published cell culture model of cryopreservation injury. In brief, RPTE cells were grown to 80% confluence in the complete medium containing TUDCA or vehicle. The complete medium was then replaced with University of Wisconsin solution containing TUDCA or vehicle. The culture plates were subsequently incubated in a temperature-regulated refrigerator at 4° C. for 48 hours. […]
# (§3) Protein extraction: Frozen kidney tissue was ground in liquid nitrogen using a pestle and mortar. […] The amount of protein present in the solution was quantified by the Bicinchoninic Acid Protein Assay kit as per manufacturer's protocol.
# (§4) Western blot analysis: 20 μg of protein was mixed with SDS-PAGE sample buffer, boiled for 5 minutes, electrophoresed on a 12% Tris-HCl SDS-PAGE gel for 1 hour at 200 V, and electroblotted onto a nitrocellulose membrane. […] The immunoblot was detected using SuperSignal West Femto Maximum Sensitivity Substrate Kit. […]
# caspase-8 [2] = test: Western blot for caspase-8 in RPTE cells after cryopreservation injury; type: cell-based, human
# Procedure: Cell culture: RPTE cells were grown in Renal Epithelial Cell Basal Medium (REBM) with full supplements at 37° C. in 5% CO2 incubator as per supplier's instructions. RPTE cells were able to proliferate for 6-8 passages under the culture conditions. Cryopreservation injury: We have utilized a published cell culture model of cryopreservation injury. In brief, RPTE cells were grown to 80% confluence in the complete medium containing TUDCA or vehicle. The complete medium was then replaced with University of Wisconsin solution containing TUDCA or vehicle. The culture plates were subsequently incubated in a temperature-regulated refrigerator at 4° C. for 48 hours. To simulate warm reperfusion phase of kidney transplantation, University of Wisconsin solution was replaced with complete medium containing TUDCA or vehicle, and cells were cultured for an additional 24 hours at 37° C. We used 100 μM or 150 μM of TUDCA for these experiments. Protein extraction: Frozen kidney tissue was ground in liquid nitrogen using a pestle and mortar. […] The amount of protein present in the solution was quantified by the Bicinchoninic Acid Protein Assay kit as per manufacturer's protocol. […] The immunoblot was detected using SuperSignal West Femto Maximum Sensitivity Substrate Kit. […]
# JNK [3] = test: Western blot for p-JNK in kidney after AKI; type: in vivo; conditions: rat kidney after AKI, TUDCA vs vehicle group
# Procedure: (§5) Rat model of AKI: All experiments were performed in accordance with the Institutional Animal Care and Use Committee. Six to eight week old Sprague-Dawley rats were anaesthetized by isoflurane gas, a midline abdominal incision was made, and bilateral renal pedicles were clamped for 45 minutes maintaining body temperature at 37° C. After removing the clamps, the abdomen was closed in two layers by using 4-0 absorbable sutures and Reflex 9 mm clips. Blood samples were obtained daily by tail vein puncture. Blood urea levels were measured by the improved Jung method using the QuantiChrom™ Urea Assay Kit as per manufacturer's protocol. Kidneys were harvested five days following surgery.
# (§6) Administration of TUDCA: 200 mg/mL of TUDCA (Sigma) was dissolved in phosphate buffered saline at pH 7.5. […]
# as §3, §4
# JNK [4] = test: Western blot for JNK in RPTE cells after cryopreservation injury; type: cell-based, human; conditions: 100 and 150 μM
# Procedure: as §1, §2, §3, §4
# ERK1/2 [5] = test: Western blot for phosphorylated ERK1/2 in RPTE cells after cryopreservation injury; type: cell-based, human
# Procedure: as §1, §2, §3, §4
# caspase-12 = test: Western blot for active caspase-12 in kidney after AKI; type: in vivo; conditions: rat kidney after AKI, TUDCA- vs vehicle-treated rats
# Procedure: as §5, §6, §3, §4
# ERK1/2 [6] = test: Western blot for ERK1/2 in kidney after AKI; type: in vivo; conditions: rat kidney after AKI, vs controls, p=0.29
# Procedure: as §5, §6, §3, §4
# p38 [7] = test: Western blot for p-p38 in kidney after AKI; type: in vivo; conditions: rat kidney after AKI, TUDCA vs vehicle group
# Procedure: as §5, §6, §3, §4
# procaspase-12 = test: Western blot for procaspase-12 in RPTE cells after cryopreservation injury; type: cell-based, human
# Procedure: as §1, §2, §3, §4
# caspase-8 [8] = test: Western blot for active caspase-8 in kidney after AKI; type: in vivo; conditions: rat kidney after AKI, TUDCA- vs vehicle-treated rats
# Procedure: as §5, §6, §3, §4
# [9] = TUDCA over UDCA; cited from earlier work
compound,measurement,setting,value
"C[C@H](CCC(=O)NCCS(=O)(=O)O)[C@H]1CC[C@H]2[C@@H]3[C@@H](O)C[C@@H]4C[C@H](O)CC[C@]4(C)[C@H]3CC[C@]12C [TUDCA, tauroursodeoxycholic acid]",effect on p38,p38 [1],no effect
same,activation of procaspase-8 (death receptor pathway),caspase-8 [2],no effect
same,amount of p-JNK,JNK [3],No difference
same,effect on JNK,JNK [4],no effect
same,activation of ERK1/2 (phosphorylated ERK1/2),"ERK1/2 [5]; 100 μM, p<0.05",activated ERK1/2
same,activation of ERK1/2 (phosphorylated ERK1/2),"ERK1/2 [5]; 150 μM, p<0.01",activated ERK1/2
same,activation of caspase-12 (ER-stress pathway),caspase-12,no significant difference
same,activation of ERK1/2,ERK1/2 [6],"increased ERK1/2 levels in two out of three rats; also recorded: increased activation of ERK1/2 in the TUDCA group, although without statistical significance"
same,amount of p-p38,p38 [7],No difference
same,activation of procaspase-12 (ER-stress pathway),procaspase-12,no effect
same,activation of caspase-8 (death-receptor pathway),caspase-8 [8],no significant difference
same,solubility at physiological pH compared with UDCA,[9],higher solubility at physiological pH

# — patent publication US20160051567A1, “PREVENTION AND TREATMENT OF KIDNEY DAMAGE” (METSELEX, INC., priority 2013, published 2016)
